Data reported in the NIST ThermoML archive (doi:10.1021/acs.jced.6b00812).

Assay: molar heat capacity at constant pressure; mn = molality of the nth substance listed, in mol/kg
Conditions: 100 kPa, Liquid, Small sample (50 mg) DSC

[Cl-].[Cl-].[Mg+2] [magnesium chloride] + O
molar heat capacity at constant pressure [J/K/mol]
Conditions	m1 = 0.58	m1 = 1.12	m1 = 1.67	m1 = 2.19	m1 = 2.74	m1 = 3.36	m1 = 3.88	m1 = 4.46	m1 = 5.04	m1 = 5.63
168.15 K	–	–	–	–	–	49.33	49.35	–	–	–
178.15 K	–	–	–	–	–	51.34	51.42	51.55	–	–
188.15 K	–	–	–	–	–	53.36	53.27	53.21	–	–
198.15 K	–	–	–	–	–	55.38	55.11	54.88	–	–
208.15 K	–	–	–	–	–	57.17	56.72	56.54	–	–
218.15 K	–	–	–	–	–	58.74	58.34	57.97	57.68	57.28
228.15 K	–	–	–	62	61.04	60.09	59.49	59.15	58.66	58.54
238.15 K	–	–	65.07	63.46	62.34	61.43	60.87	60.34	59.88	59.54
248.15 K	–	68.59	65.88	64.3	63.42	62.33	61.8	61.29	60.61	60.55
258.15 K	72.24	68.98	66.69	65.35	64.29	63.23	62.49	62	61.59	61.3
268.15 K	72.24	69.57	67.5	66.19	65.16	64.12	63.41	62.72	62.08	62.06
278.15 K	72.24	69.96	67.9	66.61	65.59	64.57	63.87	63.19	62.81	62.56
288.15 K	72.43	70.16	68.31	67.23	66.02	65.02	64.33	63.67	63.3	63.06
298.15 K	72.43	70.55	68.71	67.44	66.45	65.47	64.79	64.14	63.55	63.56

[Cl-].[K+] [potassium chloride] + O
molar heat capacity at constant pressure [J/K/mol]
Conditions	m1 = 0.53	m1 = 0.97	m1 = 1.41	m1 = 1.86	m1 = 2.34	m1 = 2.79	m1 = 3.25	m1 = 3.72	m1 = 4.15	m1 = 4.62
238.15 K	–	–	–	–	–	–	–	–	65.84	–
248.15 K	–	–	–	70.06	–	68.17	67.44	66.86	66.5	–
258.15 K	74.76	72.91	71.45	70.26	69.43	68.59	68.08	67.29	66.94	–
268.15 K	74.2	72.72	71.45	70.46	69.64	68.79	68.29	67.72	67.16	66.63
278.15 K	73.83	72.72	71.64	70.66	69.84	69	68.5	67.93	67.38	66.85
288.15 K	73.83	72.72	71.64	70.66	69.84	69.21	68.71	67.93	67.6	67.08
298.15 K	73.83	72.72	71.64	70.86	70.04	69.42	68.71	68.15	67.6	67.08
